Several values for one entry are separate records, joined by “and”; a condition that tells them apart may be missing. Equal values may be shown once.
Key:
[1] = specific heat capacity at constant pressure; xn = mol fraction of the nth substance listed; conditions: 100 kPa, Crystal of intercomponent compound 1, x2 = 0.542
[2] = xn = mol fraction of the nth substance listed; conditions: 298 K; 100 kPa; Crystal of intercomponent compound 1; X-ray diffraction; x2 = 0.542

[Te] [tellurium] + [In]
[1]
Conditions	specific heat capacity
10.11 K, relaxation calorimetry	13.3 J/K/kg and 13.26 J/K/kg
10.12 K, relaxation calorimetry	13.3 J/K/kg
12.12 K, relaxation calorimetry	20.6 J/K/kg and 20.59 J/K/kg
12.13 K, relaxation calorimetry	20.65 J/K/kg
14.14 K, relaxation calorimetry	28.68 J/K/kg and 28.67 J/K/kg and 28.69 J/K/kg
16.15 K, relaxation calorimetry	36.99 J/K/kg
16.16 K, relaxation calorimetry	36.96 J/K/kg and 37.07 J/K/kg
18.17 K, relaxation calorimetry	45.25 J/K/kg
18.18 K, relaxation calorimetry	45.21 J/K/kg
20.18 K, relaxation calorimetry	53.21 J/K/kg
20.19 K, relaxation calorimetry	53.01 J/K/kg and 53.25 J/K/kg
22.2 K, relaxation calorimetry	60.8 J/K/kg and 61.01 J/K/kg and 60.84 J/K/kg
24.22 K, relaxation calorimetry	68.02 J/K/kg and 68.1 J/K/kg
26.23 K, relaxation calorimetry	74.95 J/K/kg
26.24 K, relaxation calorimetry	74.91 J/K/kg and 74.95 J/K/kg
28.25 K, relaxation calorimetry	81.26 J/K/kg and 81.31 J/K/kg
30.27 K, relaxation calorimetry	87.16 J/K/kg
35.3 K, relaxation calorimetry	101.02 J/K/kg
35.31 K, relaxation calorimetry	100.94 J/K/kg and 100.9 J/K/kg
40.34 K, relaxation calorimetry	112.78 J/K/kg and 112.99 J/K/kg
40.35 K, relaxation calorimetry	112.74 J/K/kg
45.38 K, relaxation calorimetry	122.93 J/K/kg and 123.09 J/K/kg
45.39 K, relaxation calorimetry	122.76 J/K/kg
50.41 K, relaxation calorimetry	132.54 J/K/kg
50.42 K, relaxation calorimetry	132.13 J/K/kg
50.43 K, relaxation calorimetry	132.04 J/K/kg
55.43 K, relaxation calorimetry	140.42 J/K/kg
55.45 K, relaxation calorimetry	139.92 J/K/kg
55.47 K, relaxation calorimetry	139.72 J/K/kg
60.47 K, relaxation calorimetry	146.93 J/K/kg
60.49 K, relaxation calorimetry	146.4 J/K/kg
60.51 K, relaxation calorimetry	146.44 J/K/kg
65.49 K, relaxation calorimetry	153.78 J/K/kg
65.53 K, relaxation calorimetry	152.79 J/K/kg
65.56 K, relaxation calorimetry	152.5 J/K/kg
70.51 K, relaxation calorimetry	159.39 J/K/kg
70.57 K, relaxation calorimetry	158.16 J/K/kg
70.61 K, relaxation calorimetry	157.78 J/K/kg
75.55 K, relaxation calorimetry	164.01 J/K/kg
75.61 K, relaxation calorimetry	162.86 J/K/kg
75.65 K, relaxation calorimetry	162.69 J/K/kg
80.58 K, relaxation calorimetry	169.46 J/K/kg
80.64 K, relaxation calorimetry	167.77 J/K/kg
80.7 K, relaxation calorimetry	167.02 J/K/kg
85.6 K, relaxation calorimetry	173.13 J/K/kg
85.68 K, relaxation calorimetry	172.14 J/K/kg
85.74 K, relaxation calorimetry	170.65 J/K/kg
90.65 K, relaxation calorimetry	176.64 J/K/kg
90.72 K, relaxation calorimetry	175.44 J/K/kg
90.77 K, relaxation calorimetry	175.19 J/K/kg
95.67 K, relaxation calorimetry	179.52 J/K/kg
95.75 K, relaxation calorimetry	178.16 J/K/kg
95.8 K, relaxation calorimetry	177.96 J/K/kg
100.78 K, relaxation calorimetry	180.43 J/K/kg
100.82 K, relaxation calorimetry	179.89 J/K/kg
100.89 K, relaxation calorimetry	181.75 J/K/kg
106.78 K, relaxation calorimetry	184.18 J/K/kg
106.86 K, relaxation calorimetry	182.66 J/K/kg
106.88 K, relaxation calorimetry	182.86 J/K/kg
113.77 K, relaxation calorimetry	186.45 J/K/kg
113.82 K, relaxation calorimetry	185.55 J/K/kg
113.85 K, relaxation calorimetry	185.13 J/K/kg
120.77 K, relaxation calorimetry	188.39 J/K/kg
120.8 K, relaxation calorimetry	188.64 J/K/kg
120.84 K, relaxation calorimetry	187.28 J/K/kg
127.76 K, relaxation calorimetry	189.79 J/K/kg
127.78 K, relaxation calorimetry	190.45 J/K/kg
127.81 K, relaxation calorimetry	189.51 J/K/kg
134.73 K, relaxation calorimetry	191.98 J/K/kg
134.75 K, relaxation calorimetry	191.11 J/K/kg
134.77 K, relaxation calorimetry	191.32 J/K/kg
141.7 K, relaxation calorimetry	193.51 J/K/kg
141.73 K, relaxation calorimetry	192.35 J/K/kg
141.74 K, relaxation calorimetry	193.09 J/K/kg
148.67 K, relaxation calorimetry	194.87 J/K/kg
148.71 K, relaxation calorimetry	194.62 J/K/kg and 193.75 J/K/kg
155.61 K, relaxation calorimetry	195.65 J/K/kg
155.64 K, relaxation calorimetry	195.94 J/K/kg and 195.82 J/K/kg
162.58 K, relaxation calorimetry	197.26 J/K/kg
162.62 K, relaxation calorimetry	197.38 J/K/kg
169.55 K, relaxation calorimetry	198.54 J/K/kg
169.58 K, relaxation calorimetry	198.37 J/K/kg
169.59 K, relaxation calorimetry	198.42 J/K/kg
176.53 K, relaxation calorimetry	198.87 J/K/kg
176.56 K, relaxation calorimetry	198.83 J/K/kg
176.57 K, relaxation calorimetry	198.87 J/K/kg
183.5 K, relaxation calorimetry	199.69 J/K/kg
183.54 K, relaxation calorimetry	199.69 J/K/kg
190.47 K, relaxation calorimetry	200.4 J/K/kg
190.51 K, relaxation calorimetry	200.44 J/K/kg and 200.48 J/K/kg
197.43 K, relaxation calorimetry	200.56 J/K/kg
197.47 K, relaxation calorimetry	200.68 J/K/kg and 200.77 J/K/kg
204.39 K, relaxation calorimetry	201.18 J/K/kg
204.43 K, relaxation calorimetry	201.3 J/K/kg
204.44 K, relaxation calorimetry	201.34 J/K/kg
211.34 K, relaxation calorimetry	201.67 J/K/kg
211.38 K, relaxation calorimetry	201.76 J/K/kg
211.39 K, relaxation calorimetry	201.59 J/K/kg
218.29 K, relaxation calorimetry	201.76 J/K/kg
218.34 K, relaxation calorimetry	201.92 J/K/kg
225.27 K, relaxation calorimetry	202.09 J/K/kg
225.31 K, relaxation calorimetry	202.29 J/K/kg and 202.17 J/K/kg
226.53 K, relaxation calorimetry	200.85 J/K/kg
226.54 K, relaxation calorimetry	201.01 J/K/kg
231.55 K, relaxation calorimetry	201.3 J/K/kg
231.56 K, relaxation calorimetry	201.22 J/K/kg
232.22 K, relaxation calorimetry	202.38 J/K/kg
232.27 K, relaxation calorimetry	202.33 J/K/kg
232.28 K, relaxation calorimetry	202.29 J/K/kg
236.56 K, relaxation calorimetry	201.39 J/K/kg
236.57 K, relaxation calorimetry	201.47 J/K/kg
239.17 K, relaxation calorimetry	202 J/K/kg
239.24 K, relaxation calorimetry	202.09 J/K/kg and 202.05 J/K/kg
241.58 K, relaxation calorimetry	201.67 J/K/kg
241.6 K, relaxation calorimetry	201.26 J/K/kg
246.14 K, relaxation calorimetry	201.88 J/K/kg
246.19 K, relaxation calorimetry	202.09 J/K/kg and 202.05 J/K/kg
246.51 K, relaxation calorimetry	201.51 J/K/kg
246.52 K, relaxation calorimetry	201.92 J/K/kg
251.63 K, relaxation calorimetry	202.09 J/K/kg
251.64 K, relaxation calorimetry	202 J/K/kg
253.09 K, relaxation calorimetry	202.17 J/K/kg
253.15 K, relaxation calorimetry	202.13 J/K/kg and 202.17 J/K/kg
256.55 K, relaxation calorimetry	202.29 J/K/kg
256.56 K, relaxation calorimetry	202.17 J/K/kg
260.04 K, relaxation calorimetry	202.25 J/K/kg
260.1 K, relaxation calorimetry	202.25 J/K/kg and 202.29 J/K/kg
261.55 K, relaxation calorimetry	202.25 J/K/kg
261.57 K, relaxation calorimetry	202.13 J/K/kg
266.18 K, Extra sensitive DSC	203.98 J/K/kg
270 K, Extra sensitive DSC	203.98 J/K/kg
275 K, Extra sensitive DSC	204.48 J/K/kg
280 K, Extra sensitive DSC	204.89 J/K/kg
285 K, Extra sensitive DSC	205.18 J/K/kg
290 K, Extra sensitive DSC	205.59 J/K/kg
295 K, Extra sensitive DSC	206.09 J/K/kg
300 K, Extra sensitive DSC	206.5 J/K/kg
305 K, Extra sensitive DSC	207.08 J/K/kg
310 K, Extra sensitive DSC	207.28 J/K/kg
315 K, Extra sensitive DSC	207.28 J/K/kg
320 K, Extra sensitive DSC	207.28 J/K/kg
325 K, Extra sensitive DSC	207.49 J/K/kg
328.56 K, Extra sensitive DSC	207.7 J/K/kg
332.56 K, Extra sensitive DSC	209.1 J/K/kg
335.17 K, Extra sensitive DSC	209.43 J/K/kg
336.9 K, Extra sensitive DSC	209.39 J/K/kg
339.51 K, Extra sensitive DSC	209.35 J/K/kg
342.11 K, Extra sensitive DSC	209.39 J/K/kg
344.71 K, Extra sensitive DSC	209.18 J/K/kg
347.32 K, Extra sensitive DSC	209.02 J/K/kg
349.92 K, Extra sensitive DSC	208.77 J/K/kg
352.53 K, Extra sensitive DSC	208.4 J/K/kg
355.13 K, Extra sensitive DSC	208.48 J/K/kg
357.73 K, Extra sensitive DSC	208.27 J/K/kg
358.6 K, Extra sensitive DSC	208.15 J/K/kg

Conditions	mass density [kg/m3]
[2]	6307

Source: the NIST ThermoML archive (doi:10.1016/j.jct.2018.08.013)
